Results reported in PMC8140105 (Scientific Reports, 2021).
“Also recorded” adds a separate entry of the source. No end group written: not given here.

Key:
faeces homogenate = settings: ICR-CD-1 mice, 37 °C, up to 60 min
liver homogenate = settings: ICR-CD-1 mice, 37 °C, up to 60 min
serum = settings: 37 °C, up to 60 min
kidney homogenate = settings: ICR-CD-1 mice, 37 °C, up to 60 min
brain homogenate = settings: ICR-CD-1 mice, 37 °C, up to 60 min
BV-2 microglia cells = assay: IL-6 and TNFα determination (ELISA); assay type: cell-based, murine; settings: BV-2 cells, 10 µM; for microglial activating properties of metabolites (IL-6 production): n = 12
Method: BV-2 cells were a kind gift from Prof. Alba Minelli and were grown in RPMI medium supplemented with 10% fetal bovine serum (FBS) and 1% penicillin-streptromycin solution (Life Technologies, Belgium). The cells were cultured in culture flasks (Greiner, Belgium) in an incubator set at 37 °C and 5% CO2. When confluent, cells were detached using a cell scraper and diluted 1:20 approximately every 4 days. Experiments were performed in serum-free DMEM without phenol red.
To investigate the microglia activating properties of the peptide, IL-6 and TNFα levels were determined in cell-free supernatants of BV-2 microglia cells after treatment. BV-2 cells (2 × 10^5 cells/well) were seeded in 24-well plates and treated with peptide for 20 h. ELISA was performed according to the supplier’s protocol (eBioscience, Vienna, Austria). Briefly, after incubation with biotinylated detection antibody, avidin-HRP conjugate and subsequently chromogenic tetramethylbenzidine (TMB) substrate were added. Absorbance was measured at 450 nm and 570 nm using the Multiskan Ascent 354 microplate reader (Thermofisher, Waltham, USA). Concentrations were determined using the standard curve generated using known concentrations of TNFα and IL-6.

[1] = Multiple time regression (MTR) analysis, blood-to-brain influx; assay type: in vivo, ICR-CD-1 mice; settings: 125I-labelled, mice, linear model, mean ± standard error
Method: Briefly, 0.1 µmol of the lyophilized peptide was dissolved in 100 µL of phosphate buffer (pH 7.4, 25 mM). A Iodo-Gen coated tube (Thermo Scientific, Merelbeke, Belgium) was first of all rinsed with 1 mL of phosphate buffer. Subsequently, 50 µL of sodium iodide solution (1.1 µmol/mL) and 1 mCi of Na^125I solution (Perking Elmer, Zaventem, Belgium) were transferred into this Iodo-Gen coated tube. The oxidation reaction was allowed to proceed for six minutes at room temperature, after which the iodonium solution was transferred to 50 µL of peptide solution (1 mM). The iodination reaction of the peptide was allowed to proceed for another six minutes at room temperature. Finally, the iodinated peptide was purified using a silver filter (Thermo Scientific, Merelbeke, Belgium).
In order to determine whether the peptide could enter the brain, in vivo multiple time regression (MTR) analysis was performed. ICR-CD-1 mice were anesthetized intraperitoneally using a 40% urethane solution (3 g/kg). […] At specified time points after injection (i.e. 1, 3, 5, 10, 12.5 and 15 min, with start and end in duplicate), blood was obtained from the carotid artery followed by decapitation of the mouse. The isolated brain was weighed and radioactivity measured in a gamma counter for 5 min (Wallac Wizard automatic gamma counter, Perkin Elmer, Shelton, CT, USA), as well as from 50 µL serum, which was obtained by centrifuging the collected blood at 10,000g for 15 min at 21 °C. The linear and biphasic modeling of the multiple time regression analysis was performed as previously described.

In the case of SDLPFEH, the cleaved bond (faeces homogenate) is reported as “S1-D2, major”, the cleaved bond (liver homogenate) is reported as “S1-D2, major; also recorded: D2-L3” and the cleaved bond (serum) is reported as “S1-D2, major; also recorded: D2-L3; also recorded: F5-E6; also recorded: E6-H7”. For the same substance, the cleaved bond (kidney homogenate) was “D2-L3; also recorded: S1-D2, major” and the cleaved bond (brain homogenate) was “S1-D2, major and D2-L”.
In the case of “SDLPF [metabolite of PapRIV formed in serum]”, the “microglial activating properties of metabolites (IL-6 production)” value (“microglial activating properties” for short) (BV-2 microglia cells) is reported as “no activating properties”.
With “DLPF [metabolite of PapRIV formed in serum]” the “microglial activating properties” value (BV-2 microglia cells) was “no activating properties”.
With “DLPFEH [main metabolite of PapRIV formed in all matrices]” the “microglial activating properties” value (BV-2 microglia cells) was “to the same extent as the native sequence”.
For DEHSFLP [DEHSFLP], the “activating properties (IL-6 and TNFα production)” value (BV-2 microglia cells; scrambled control) was “no activating properties”.
For Dermorphin [reference compound], the Kin ([1]; i.v. (jugular vein), 1–15 min) was 0.35 ± 0.05 µL/g/min and the “Vascular brain distribution volume, V0” value ([1]; i.v.) was 15.93 ± 0.64 µL/g.
